Data taken from patent publication US20130071931A1, “PROCESS FOR HEPATIC DIFFERENTIATION FROM INDUCED HEPATIC STEM CELLS, AND INDUCED HEPATIC PROGENITOR CELLS DIFFERENTIATED THEREBY” (NATIONAL CANCER CENTER, priority 2011, published 2013).

Legend:
[1] = tested on: human induced hepatic stem cells AFB1-1; experiment: Quantitative RT-PCR of marker genes, hepatic differentiation on Matrigel (Examples 2-4); assay type: cell-based; conditions: no feeder cells, 13 days, No. 377 taken as 1
[2] = tested on: p38 MAP kinase; conditions: cited from earlier work
[3] = tested on: human induced hepatic stem cells AFB1-1; experiment: AFP in culture supernatant, collagen coat (Example 19); assay type: cell-based; conditions: no feeder cells
[4] = tested on: extracellular signal regulated kinase; conditions: cited from earlier work
[5] = tested on: TGF-β induced epithelial-mesenchymal transformation; conditions: cited from earlier work
[6] = tested on: human induced hepatic stem cells AFB 1-1; experiment: AFP in culture supernatant, suspension (three-dimensional) culture (Examples 6-10); assay type: cell-based; conditions: cell samples Nos. 473-475: suspension culture, ReproStem (bFGF-free)/Y-27632 5 μM, low-attachment plate, no feeder cells, 7 days after seeding; A-83-01 0.1 μM, OsM 10 ng/mL, DEX 0.1 μM where present
Method: The cell pellets were lysed in 1 mL/well of a QIAzol reagent (refer to Table 8B).
Six days after the seeding, the cells were recovered centrifugally and then suspended in 2 mL of a fresh ReproStem (bFGF-free)/Y-27632 (5 μM) supplemented with 10 ng/mL oncostatin M (OsM) and 0.1 μM dexamethasone (DEX), to continue hepatic differentiation culture in the above culture plate. […] The cell pellets were lysed in 1 mL/well of a QIAzol reagent (refer to Table 8B).

[7] = tested on: human induced hepatic stem cells AFB1-1; experiment: AFP in culture supernatant (Example 13); assay type: cell-based; conditions: cell sample No. 835: 0.5 μM A-83-01/ReproStem (bFGF-free), no feeder cells, Matrigel
From the text: The medium was replaced everyday with a fresh human ES/iPS cell medium (mTeSR1) to continue culture until reaching 50-80% confluence per dish. […] The resultant cell sample is referred to as “No. 835”.

[8] = tested on: human induced hepatic stem cells AFB1-1; experiment: Quantitative RT-PCR, differentiation with TGF-β signaling inhibitors (Example 12); assay type: cell-based; conditions: cell samples Nos. 1545-1549: 0.5 μM inhibitor in ReproStem (bFGF-free), no feeder cells, Matrigel, 13 days after seeding
Method: The resultant cell samples are respectively referred to as “Nos. 1545-1549”. No. 1544 was cultured in the absence of any inhibitor. Nos. 1545-1549 were cultured in the presence of the following inhibitors, respectively.
Thirteen days after the seeding, the cells were lysed in 1 mL/well of a QIAzol reagent to prepare the total RNA from the cell lysate using the miRNeasy Mini Kit (Qiagen). The total RNA was subjected to quantitative RT-PCR using the iScript Advanced cDNA synthesis kit, the SsoAdvanced SYBR Green Supremix ([…]), and the CFX96 Real-Time System C1000 Thermal Cycler, all manufactured by Bio-Rad. The quantified genes were ALB, AAT, TTR, AFP, cytokeratin 7 (KRT7), cytokeratin 19 (KRT19), and DLK1 (Delta-like 1 homolog).

[9] = tested on: rat iPS cells; conditions: added to a rat iPS cell culture medium; cited from earlier work
[10] = tested on: phosphorylation of Smad2/3; conditions: cited from earlier work
[11] = tested on: ALK 4; conditions: cited from earlier work
[12] = tested on: type I receptor for the osteogenic factor; conditions: cited from earlier work
[13] = tested on: human induced hepatic stem cells AFB1-1; experiment: AFP in culture supernatant, hepatic differentiation on Matrigel (Examples 2-4); conditions: no feeder cells, 13 days after seeding
[14] = tested on: human induced hepatic stem cells AFB1-1; experiment: AFP in culture supernatant (Example 18); assay type: cell-based; conditions: cell sample No. 705: A-83-01 (0.5 μM at start, 0.1 μM at medium changes)/ReproStem (bFGF-free), no feeder cells, Matrigel
[15] = cell sample No. 393: 0.1 μM A-83-01/mTeSR1 + 100 ng/mL bFGF
[16] = cell sample No. 394: 0.1 μM A-83-01/aFGF 10 ng/mL/ReproStem (bFGF-free)

With Cc1cccc(-c2nn(C(=S)Nc3ccccc3)cc2-c2ccnc3ccccc23)n1 [A-83-01, 3-(6-methyl-2-pyridinyl)-N-phenyl-4-(4-quinolinyl)-1H-pyrazolo-1-carbothioamide] as the compound, how does the AAT expression level [1, 15] read?
Its AAT expression level is 240.

What about the AFP expression level [1, 15] of the same compound?
Its AFP expression level is 1,791.

What about the ALB expression level [1, 15] of the same compound?
The ALB expression level was 1,925.

And the DLK1 expression level [1, 15]?
Its DLK1 expression level is 404.

And the TTR expression level [1, 15]?
Its TTR expression level is 2,871.

What about the AAT expression level [1, 16] of the same compound?
Its AAT expression level is 3,812.

And the AFP expression level [1, 16]?
Its AFP expression level is 12,812.

And the AHSG expression level [1, 16]?
Its AHSG expression level is 14,079.

And the ALB expression level [1, 16]?
The ALB expression level was 45,698.

What about the APOA4 expression level [1, 16] of the same compound?
The APOA4 expression level was 966.

What about the DLK1 expression level [1, 16] of the same compound?
Its DLK1 expression level is 804.

And the FABP1 expression level [1, 16]?
The FABP1 expression level was 3,034.

And the FGG expression level [1, 16]?
The FGG expression level was 10,138.

What about the FOXA2 expression level [1, 16] of the same compound?
The FOXA2 expression level was 0.19.

What about the HGF expression level [1, 16] of the same compound?
Its HGF expression level is 11.

What about the HNF1A expression level [1, 16] of the same compound?
Its HNF1A expression level is 0.88.

And the HNF4A expression level [1, 16]?
Its HNF4A expression level is 0.39.

And the KRT7 expression level [1, 16]?
Its KRT7 expression level is 37.5.

And the NANOG expression level [1, 16]?
Its NANOG expression level is 0.01.

And the “OCT3/4 (POU5F1) expression level” value [1, 16]?
Its value is 0.07.

And the RBP4 expression level [1, 16]?
Its RBP4 expression level is 4,326.

And the SOX2 expression level [1, 16]?
The SOX2 expression level was 0.08.

What about the SOX17 expression level [1, 16] of the same compound?
Its SOX17 expression level is 0.03.

What about the TF expression level [1, 16] of the same compound?
The TF expression level was 9,126.

What about the TTR expression level [1, 16] of the same compound?
Its TTR expression level is 9,113.

What about the “effect on p38 MAP kinase” value [2] of the same compound?
Its value is “little or no effect”.

What about the “AFP expression level (culture supernatant)” value ([3]; cell sample No. 634: 0.1 μM A-83-01/ReproStem (bFGF-free), collagen plate without Matrigel, 6 days after the seeding) of the same compound?
The value was 2,890 ng/mL.

And the “AFP expression level (culture supernatant)” value ([3]; cell sample No. 634: 0.1 μM A-83-01/ReproStem (bFGF-free), collagen plate without Matrigel, 14 days after the seeding)?
The value was 24,900 ng/mL.

What about the “AFP expression level (culture supernatant)” value ([3]; cell sample No. 637: 0.1 μM A-83-01/ReproStem (bFGF-free), collagen plate coated with Matrigel, 6 days after the seeding) of the same compound?
Its value is 3,040 ng/mL.

What about the “AFP expression level (culture supernatant)” value ([3]; cell sample No. 637: 0.1 μM A-83-01/ReproStem (bFGF-free), collagen plate coated with Matrigel, 14 days after the seeding) of the same compound?
The value was 30,000 ng/mL.

And the “effect on the extracellular signal regulated kinase” value [4]?
The value was “little or no effect”.

And the “TGF-β induced epithelial-mesenchymal transformation” value [5]?
Its value is “inhibits”.

And the “α-fetoprotein (AFP) in culture supernatant” value (“α-fetoprotein (AFP)” for short) [6]?
Its value is 324 ng/mL.

And the “AFP yield (culture supernatant)” value ([7]; 6 days after the seeding)?
The value was 6,430 ng/mL.

And the “AFP yield (culture supernatant)” value ([7]; 13 days after the seeding)?
Its value is 30,900 ng/mL.

What about the “AAT expression Ct value” [8] of the same compound?
The value was 23.57.

And the “AFP expression Ct value” [8]?
The value was 17.21.

And the “ALB expression Ct value” [8]?
Its value is 20.95.

And the “DLK1 expression Ct value” [8]?
Its value is 18.15.

What about the “KRT7 expression Ct value” [8] of the same compound?
The value was 20.51.

And the “KRT19 expression Ct value” [8]?
The value was 22.05.

And the “TTR expression Ct value” [8]?
The value was 16.96.

And the “GAPDH expression Ct value” ([8]; housekeeping gene)?
Its value is 14.22.

What about the “culture of rat iPS cells” value [9] of the same compound?
The value was “allows uniform proliferation and prolonged culture of rat iPS cells without differentiation”.

What about the “phosphorylation of Smad2/3” value [10] of the same compound?
The value was “inhibits”.

And the IC50 [11]?
Its IC50 is 12 nM.

What about the “effect on type I receptor for the osteogenic factor” value [12] of the same compound?
The value was “little or no effect”.

And the “α-fetoprotein (AFP)” value [13, 15]?
The value was 3,120 ng/mL.

What about the “α-fetoprotein (AFP)” value [13, 16] of the same compound?
Its value is 14,400 ng/mL.

And the “AFP expression level (culture supernatant)” value ([14]; 8 days after the seeding)?
Its value is 5,540 ng/mL.

What about the “AFP expression level (culture supernatant)” value ([14]; 13 days after the seeding) of the same compound?
Its value is 2,320 ng/mL.
